# Test results published in patent EP0355234A1, “Pyrazolopyridine derivatives as antiatherosclerotic and antihypercholesterolemic agents” (MERRELL DOW PHARMACEUTICALS INC., priority 1988, dated 1990).
# Where a name gives a salt, the structure may show the parent alone.
# System: Hypercholesterolemic Rabbit
# Experiment: Antiatherosclerotic and antihypercholesterolemic effects in the hypercholesterolemic (2% cholesterol diet) rabbit, six weeks of treatment
# Format: in vivo, New Zealand white male rabbits
# Conditions: mean ± standard deviation; for % of thoracic arota covered by plaque / Aortic arch cholesterol: 6 weeks treatment; for % of thoracic arota covered by plaque: Sudan Black stain, cut-weight planimetry, positive control Group 2: 70.57±9.54; for Aortic arch cholesterol: positive control Group 2: 15.82±4.64; for Serum Cholesterol: after 6 wks treatment, positive control Group 2: 2475±434
# Procedure: Four groups of New Zealand white male rabbits (weighing 1-2 kg) were treated for six weeks according to the following treatment schedule [all injections were in volumes corresponding to 0.1 ml/kg subcutaneously (s.c.)]: • Group 1 maintained on normal rabbit chow; received polyethylene glycol 300 (PEG ) injection twice daily. • Group 2 (Positive Control) maintained on rabbit chow containing 2% by weight cholesterol; received PEG injection twice daily. • Group 3 maintained on rabbit chow containing 2% by weight cholesterol; received 4,7-dihydro-1,6-dimethyl-4-(2-methylphenyl)-3-(2-methylpropyl)-1H-pyrozolo[3,4-b]pyridine-5-carboxylic acid methyl ester monohydrochloride (compound 1A) at a dose of 1 mg/kg in PEG twice daily. • Group 4 maintained on rabbit chow containing 2% by weight cholesterol; received compound 1A at a dose of 10 mg/kg in PEG twice daily.
# The body weight of each rabbit was measured weekly. At three week and six week intervals after the start of treatment, blood samples were obtained from each rabbit and determinations of platelet aggregation, serum cholesterol, triglycerides, electrolyte concentrations and hematological parameters were performed.
# Six weeks after the start of treatment, the animals were sacrificed. Aortic arches and thoracic aortas were removed and were dissected free of extraneous tissues. The aortic arches were weighed, homogenized in isopropanol, and determinations of cholesterol, triglycerides and electrolyte concentrations were performed. Thoracic aortas were slit down the ventral surface and stained for lipoproteins and lipids by immersion for 5 min in Sudan Black according to the method of Gradwohl (Gradwohl's Clinical Laboratory Methods and Diagnosis (1980) Vol. 1, Edition 8, Chapter 25, pg 771; Sonnenwerth and Jarett, editors, The C.V. Mosby Company, St. Louis, Toronto, London). The percentage of luminal surface covered by atherosclerotic plaque was assessed by "cut-weight" planimetry of the projected image according to the method of Willis et al. (Arteriosclerosis 5, 250 (1985)) whereby the photographic image was projected at a magnification of 7 to 10 and the outer border of the tissue and the boundary between plaque and uninvolved tissue were traced and the appropriate areas were cut out and weighed.
# [1] = Group 3: 1 mg/kg bid s.c. in PEG
# [2] = Group 4: 10 mg/kg bid s.c. in PEG
compound,measurement,setting,value
"COC(=O)C1=C(C)Nc2c(c(CC(C)C)nn2C)C1c1ccccc1C (stereo not drawn) [Compound 1A, 4,7-dihydro-1,6-dimethyl-4-(2-methylphenyl)-3-(2-methylpropyl)-1H-pyrozolo[3,4-b]pyridine-5-carboxylic acid methyl ester monohydrochloride]",% of thoracic arota covered by plaque,[1],34.33±19.03 %
same,Aortic arch cholesterol,[1],9.57±1.38 µg/mg wet wt.
same,Serum Cholesterol,[1],1919 ± 345 mg/dL
same,% of thoracic arota covered by plaque,[2],36.71±9.95 %
same,Aortic arch cholesterol,[2],9.27±1.91 µg/mg wet wt.
same,Serum Cholesterol,[2],1774 ± 300 mg/dL
